# Source: the CheMixHub viscosity set
# ± gives the uncertainty stated by the source.
# Test: xn = mol fraction of the nth substance listed
smiles,measurement,setting,value
[Br-].[Br-].[Br-].[Sb+3] + CNc1ccccc1,viscosity,"323.15 K, 101 kPa, x1 = 0.25",21.03 ± 0.81 mPa·s
same,viscosity,"323.15 K, 101 kPa, x1 = 0.333",107.7 ± 3.6 mPa·s
same,viscosity,"323.15 K, 101 kPa, x1 = 0.4",507 ± 14 mPa·s
same,viscosity,"323.15 K, 101 kPa, x1 = 0.45",1423 ± 33 mPa·s
same,viscosity,"323.15 K, 101 kPa, x1 = 0.5",2867 ± 58 mPa·s
same,viscosity,"323.15 K, 101 kPa, x1 = 0.53",3472 ± 68 mPa·s
same,viscosity,"323.15 K, 101 kPa, x1 = 0.55",3692 ± 69 mPa·s
same,viscosity,"323.15 K, 101 kPa, x1 = 0.57",3331 ± 63 mPa·s
same,viscosity,"323.15 K, 101 kPa, x1 = 0.6",2686 ± 50 mPa·s
same,viscosity,"323.15 K, 101 kPa, x1 = 0.65",1275 ± 24 mPa·s
CCCCC(CC)COP(=O)(O)OCC(CC)CCCC (stereo not given) + CO,viscosity,"303.15 K, 101 kPa, x1 = 0.0413",1.349 ± 0.033 mPa·s
same,viscosity,"303.15 K, 101 kPa, x1 = 0.0751",2.075 ± 0.049 mPa·s
same,viscosity,"303.15 K, 101 kPa, x1 = 0.1088",2.893 ± 0.067 mPa·s
same,viscosity,"303.15 K, 101 kPa, x1 = 0.1723",4.725 ± 0.11 mPa·s
same,viscosity,"303.15 K, 101 kPa, x1 = 0.2681",7.099 ± 0.15 mPa·s
same,viscosity,"303.15 K, 101 kPa, x1 = 0.3639",9.284 ± 0.2 mPa·s
same,viscosity,"303.15 K, 101 kPa, x1 = 0.4602",11.18 ± 0.24 mPa·s
same,viscosity,"303.15 K, 101 kPa, x1 = 0.6161",13.99 ± 0.3 mPa·s
same,viscosity,"303.15 K, 101 kPa, x1 = 0.7023",15.23 ± 0.33 mPa·s
same,viscosity,"303.15 K, 101 kPa, x1 = 0.8292",17.17 ± 0.39 mPa·s
same,viscosity,"303.15 K, 101 kPa, x1 = 0.928",18.67 ± 0.43 mPa·s
C[N+](=O)[O-] + CO,viscosity,"293.15 K, 101.33 kPa, x2 = 0.0503",0.617 ± 0.006 mPa·s
same,viscosity,"293.15 K, 101.33 kPa, x2 = 0.1004",0.596 ± 0.006 mPa·s
same,viscosity,"293.15 K, 101.33 kPa, x2 = 0.15",0.575 ± 0.005 mPa·s
same,viscosity,"293.15 K, 101.33 kPa, x2 = 0.2003",0.561 ± 0.005 mPa·s
same,viscosity,"293.15 K, 101.33 kPa, x2 = 0.2501",0.552 ± 0.005 mPa·s
same,viscosity,"293.15 K, 101.33 kPa, x2 = 0.3",0.542 ± 0.005 mPa·s
same,viscosity,"293.15 K, 101.33 kPa, x2 = 0.3502",0.536 ± 0.005 mPa·s
same,viscosity,"293.15 K, 101.33 kPa, x2 = 0.4",0.531 ± 0.005 mPa·s
same,viscosity,"293.15 K, 101.33 kPa, x2 = 0.4501",0.527 ± 0.005 mPa·s
same,viscosity,"293.15 K, 101.33 kPa, x2 = 0.5",0.525 ± 0.005 mPa·s
same,viscosity,"293.15 K, 101.33 kPa, x2 = 0.55",0.524 ± 0.005 mPa·s
same,viscosity,"293.15 K, 101.33 kPa, x2 = 0.6001",0.524 ± 0.005 mPa·s
same,viscosity,"293.15 K, 101.33 kPa, x2 = 0.65",0.525 ± 0.005 mPa·s
same,viscosity,"293.15 K, 101.33 kPa, x2 = 0.7",0.526 ± 0.005 mPa·s
same,viscosity,"293.15 K, 101.33 kPa, x2 = 0.7501",0.53 ± 0.005 mPa·s
same,viscosity,"293.15 K, 101.33 kPa, x2 = 0.8",0.538 ± 0.005 mPa·s
same,viscosity,"293.15 K, 101.33 kPa, x2 = 0.8501",0.545 ± 0.005 mPa·s
same,viscosity,"293.15 K, 101.33 kPa, x2 = 0.9",0.553 ± 0.005 mPa·s
same,viscosity,"293.15 K, 101.33 kPa, x2 = 0.95",0.566 ± 0.005 mPa·s
same,viscosity,"298.15 K, 101 kPa, x1 = 0.0771",0.5277 ± 0.053 mPa·s
same,viscosity,"298.15 K, 101 kPa, x1 = 0.1586",0.5151 ± 0.052 mPa·s
same,viscosity,"298.15 K, 101 kPa, x1 = 0.216",0.503 ± 0.005 mPa·s
same,viscosity,"298.15 K, 101 kPa, x1 = 0.238",0.502 ± 0.005 mPa·s
same,viscosity,"298.15 K, 101 kPa, x1 = 0.24",0.501 ± 0.005 mPa·s
same,viscosity,"298.15 K, 101 kPa, x1 = 0.244",0.5 ± 0.005 mPa·s
same,viscosity,"298.15 K, 101 kPa, x1 = 0.2441",0.5082 ± 0.051 mPa·s
same,viscosity,"298.15 K, 101 kPa, x1 = 0.3345",0.5081 ± 0.051 mPa·s
same,viscosity,"298.15 K, 101 kPa, x1 = 0.4298",0.5102 ± 0.051 mPa·s
same,viscosity,"298.15 K, 101 kPa, x1 = 0.496",0.495 ± 0.005 mPa·s
same,viscosity,"298.15 K, 101 kPa, x1 = 0.5305",0.5169 ± 0.052 mPa·s
same,viscosity,"298.15 K, 101 kPa, x1 = 0.539",0.497 ± 0.005 mPa·s
same,viscosity,"298.15 K, 101 kPa, x1 = 0.579",0.5 ± 0.005 mPa·s
same,viscosity,"298.15 K, 101 kPa, x1 = 0.6375",0.5265 ± 0.053 mPa·s
same,viscosity,"298.15 K, 101 kPa, x1 = 0.7509",0.5426 ± 0.055 mPa·s
same,viscosity,"298.15 K, 101 kPa, x1 = 0.861",0.55 ± 0.006 mPa·s
same,viscosity,"298.15 K, 101 kPa, x1 = 0.863",0.55 ± 0.006 mPa·s
same,viscosity,"298.15 K, 101 kPa, x1 = 0.8715",0.5721 ± 0.058 mPa·s
same,viscosity,"298.15 K, 101 kPa, x1 = 0.875",0.554 ± 0.006 mPa·s
same,viscosity,"303.15 K, 101.33 kPa, x2 = 0.0503",0.551 ± 0.005 mPa·s
same,viscosity,"303.15 K, 101.33 kPa, x2 = 0.1004",0.528 ± 0.005 mPa·s
same,viscosity,"303.15 K, 101.33 kPa, x2 = 0.15",0.511 ± 0.005 mPa·s
same,viscosity,"303.15 K, 101.33 kPa, x2 = 0.2003",0.498 ± 0.005 mPa·s
same,viscosity,"303.15 K, 101.33 kPa, x2 = 0.2501",0.489 ± 0.005 mPa·s
same,viscosity,"303.15 K, 101.33 kPa, x2 = 0.3",0.479 ± 0.005 mPa·s
same,viscosity,"303.15 K, 101.33 kPa, x2 = 0.3502",0.474 ± 0.005 mPa·s
same,viscosity,"303.15 K, 101.33 kPa, x2 = 0.4",0.469 ± 0.005 mPa·s
same,viscosity,"303.15 K, 101.33 kPa, x2 = 0.4501",0.464 ± 0.005 mPa·s
same,viscosity,"303.15 K, 101.33 kPa, x2 = 0.5",0.461 ± 0.004 mPa·s
same,viscosity,"303.15 K, 101.33 kPa, x2 = 0.55",0.459 ± 0.004 mPa·s
same,viscosity,"303.15 K, 101.33 kPa, x2 = 0.6001",0.459 ± 0.004 mPa·s
same,viscosity,"303.15 K, 101.33 kPa, x2 = 0.65",0.458 ± 0.004 mPa·s
same,viscosity,"303.15 K, 101.33 kPa, x2 = 0.7",0.461 ± 0.004 mPa·s
same,viscosity,"303.15 K, 101.33 kPa, x2 = 0.7501",0.463 ± 0.004 mPa·s
same,viscosity,"303.15 K, 101.33 kPa, x2 = 0.8",0.468 ± 0.005 mPa·s
same,viscosity,"303.15 K, 101.33 kPa, x2 = 0.8501",0.474 ± 0.005 mPa·s
same,viscosity,"303.15 K, 101.33 kPa, x2 = 0.9",0.482 ± 0.005 mPa·s
same,viscosity,"303.15 K, 101.33 kPa, x2 = 0.95",0.491 ± 0.005 mPa·s
same,viscosity,"313.15 K, 101.33 kPa, x2 = 0.0503",0.493 ± 0.005 mPa·s
same,viscosity,"313.15 K, 101.33 kPa, x2 = 0.1004",0.473 ± 0.005 mPa·s
same,viscosity,"313.15 K, 101.33 kPa, x2 = 0.15",0.458 ± 0.004 mPa·s
same,viscosity,"313.15 K, 101.33 kPa, x2 = 0.2003",0.445 ± 0.004 mPa·s
same,viscosity,"313.15 K, 101.33 kPa, x2 = 0.2501",0.435 ± 0.004 mPa·s
same,viscosity,"313.15 K, 101.33 kPa, x2 = 0.3",0.427 ± 0.004 mPa·s
same,viscosity,"313.15 K, 101.33 kPa, x2 = 0.3502",0.421 ± 0.004 mPa·s
same,viscosity,"313.15 K, 101.33 kPa, x2 = 0.4",0.416 ± 0.004 mPa·s
same,viscosity,"313.15 K, 101.33 kPa, x2 = 0.4501",0.412 ± 0.004 mPa·s
same,viscosity,"313.15 K, 101.33 kPa, x2 = 0.5",0.408 ± 0.004 mPa·s
same,viscosity,"313.15 K, 101.33 kPa, x2 = 0.55",0.406 ± 0.004 mPa·s
same,viscosity,"313.15 K, 101.33 kPa, x2 = 0.6001",0.405 ± 0.004 mPa·s
same,viscosity,"313.15 K, 101.33 kPa, x2 = 0.65",0.405 ± 0.004 mPa·s
same,viscosity,"313.15 K, 101.33 kPa, x2 = 0.7",0.406 ± 0.004 mPa·s
same,viscosity,"313.15 K, 101.33 kPa, x2 = 0.7501",0.409 ± 0.004 mPa·s
same,viscosity,"313.15 K, 101.33 kPa, x2 = 0.8",0.412 ± 0.004 mPa·s
same,viscosity,"313.15 K, 101.33 kPa, x2 = 0.8501",0.417 ± 0.004 mPa·s
same,viscosity,"313.15 K, 101.33 kPa, x2 = 0.9",0.423 ± 0.004 mPa·s
same,viscosity,"313.15 K, 101.33 kPa, x2 = 0.95",0.432 ± 0.004 mPa·s
N + CO,viscosity,"303 K, 100 kPa, x1 = 0.16",0.48 ± 0.02 mPa·s
same,viscosity,"303 K, 100 kPa, x1 = 0.23",0.48 ± 0.02 mPa·s
same,viscosity,"313 K, 100 kPa, x1 = 0.16",0.4 ± 0.02 mPa·s
same,viscosity,"313 K, 100 kPa, x1 = 0.23",0.39 ± 0.02 mPa·s
C[N+](=O)[O-] + COC(C)=O,viscosity,"298.15 K, 101 kPa, x1 = 0.1415",0.4094 ± 0.041 mPa·s
same,viscosity,"298.15 K, 101 kPa, x1 = 0.271",0.4445 ± 0.045 mPa·s
same,viscosity,"298.15 K, 101 kPa, x1 = 0.3891",0.4757 ± 0.048 mPa·s
same,viscosity,"298.15 K, 101 kPa, x1 = 0.498",0.5048 ± 0.051 mPa·s
same,viscosity,"298.15 K, 101 kPa, x1 = 0.5977",0.5313 ± 0.054 mPa·s
same,viscosity,"298.15 K, 101 kPa, x1 = 0.6903",0.5553 ± 0.056 mPa·s
same,viscosity,"298.15 K, 101 kPa, x1 = 0.7763",0.5776 ± 0.058 mPa·s
same,viscosity,"298.15 K, 101 kPa, x1 = 0.8562",0.5968 ± 0.06 mPa·s
same,viscosity,"298.15 K, 101 kPa, x1 = 0.9303",0.6147 ± 0.062 mPa·s
